This is an account of results in patent publication US20250302846A1, “ANTIBIOTIC COMPOSITION AND METHODS OF USE THEREOF” (THE REGENTS OF THE UNIVERSITY OF COLORADO A BODY CORPORATE, priority 2022, published 2025).

For data set [1], the system named is S. aureus FDA209. Kind of data set: Laurdan generalized polarization membrane fluidity assay. The conditions noted are these: mid-log S. aureus FDA209. The data set is classed as cell-based. As for the experimental part:
Mid-log phase S. aureus FDA209 cells were used for all experiments. A) Membrane fluidity was evaluated with a Laurdan generalized polarization (GP) assay. Cells were exposed at time 0 to DMSO, benzyl alcohol (BnOH, a membrane fluidizer [50 mM]), or D66 (1x MIC95=130 μM). Mean and SEM of three biological replicates performed with technical triplicates. B) Membrane permeability was monitored by PI fluorescence. Cells were exposed at time 0 to DMSO, SDS [0.3%], or D66. Samples were processed at the timepoints shown. Mean and SEM of three biological replicates performed with technical triplicates. C) Intracellular pH was monitored with the fluorescent probe BCECF-AM. Cells were exposed at time 0 to DMSO, the protonophore CCCP [100 μM], or D66. Mean and SEM of three biological replicates performed with technical triplicates. D) Intracellular ATP levels measured using the Promega BacTiter-Glo kit after 30 minutes of treatment with DMSO, chloramphenicol (Chlor), or D66. Mean and SEM of three biological replicates performed with technical triplicates. E) Respiration rates of cells incubated with resazurin and treated at time 0 as indicated. Mean and […]

For data set [2], the system named is Bacillus subtilis. Kind of data set: Growth inhibition in broth (MIC95). In kind it is cell-based. As for the experimental part:
FIG. 8A-B. D66 inhibits the growth of Gram-positive bacteria in broth. A) Dose response curves monitoring staphylococcal and B. subtills growth in the presence of D66 from an OD600 of 0.01, normalized to growth in 2% DMSO after 18 hours. Mean and SEM of at least three biological replicates performed with technical triplicates. B) Table of D66 concentrations that inhibit growth. For comparison, S. Typhimurium is included.
A) D66 quenches the fluorescent dye DiSC3 (5) in a dose-dependent manner. Data were normalized to DMSO at time 0. Relative fluorescent units (RFU). Mean and SEM of three biological replicates performed with technical triplicates. B, C) Mid-log phase S. aureus (FDA209) in LB were treated at time 0 with DMSO, gramicidin [2 μg/mL], or D66 (1x MIC95=130 μM). B) Fold change in RFU. Data are normalized to DMSO at time 0. C) Data normalized to account for the quenching effect of D66 on DiSC3 (5) observed in A. Mean and SEM of three biological replicates performed with technical triplicates. D) Bacillus subtilis expressing mNeonGreen-FtsZ at stationary phase in LB were placed on agar pads containing D66 at the indicated concentration (1x MIC95=89 μM). Confocal microscope images were taken after 15 minutes to ascertain whether D66 disrupted the septal localization of FtsZ.

For data set [3], the system named is E. coli K-12 ΔtolC. Briefly: Minimum inhibitory concentration determination in broth. The conditions noted are these: for MIC50: Escherichia coli. The data set is classed as cell-based. On the procedure: (§1) Bacterial Strains: S. Typhimurium (SL1344), S. Typhimurium (14028s, ATCC), S. Typhimurium ΔacrAB (ALR1257), E. coli (K-12 derivative BW25113 (wild-type)), E. coli K-12 AtolC (JP313 delta tolC; also called AD3644 and JLD1285).
(§2) Minimum inhibitory concentration determination: Overnight LB-grown cultures were diluted in LB or MHB to an optical density (OD600) of 0.01 and distributed into polystyrene 96-well flat-bottom plates (Greiner, 655185). […] The final DMSO concentration was at or below 2%. Where indicated, PMB [0.5 μg/mL] was added prior to D66. Plates were grown at 37° C. with shaking and OD600 was monitored (BioTek Synergy H1 or BioTek Eon). MICs were defined as the concentration at which 95% of growth was inhibited (OD600).

The test system of data set [4] is E. coli (K-12). The data set is described as above. In kind it is cell-based. As to conditions: for MIC50: Escherichia coli. As for the experimental part: as §1, §2
In data set [5] the test system is S. Typhimurium ΔacrAB. The description is as above. The data set is classed as cell-based. As to conditions: for MIC50: Salmonella enterica, TYPHIMURIUM
On the procedure: as §1, §2

Data set [6] concerns staphylococcal biofilm. Kind of data set: Staphylococcal biofilm formation. In kind it is cell-based. The conditions noted are these: 18 hours in TSB, subinhibitory concentrations. As for the experimental part: Biofilm formation was monitored after 18 hours in TSB with subinhibitory concentrations of DMSO, rifampin (1x MIC95=0.05 μg/mL), vancomycin (1x MIC95=1 μg/mL), or D66 (1x MIC95=130 μM). A-D) Crystal violet staining for accumulated biofilm mass measured at A595. Mean and
SEM of three biological replicates performed with technical triplicates. E-F). Biofilms were stained with Syto 9 (live cells) and PI (damaged/dead cells) and imaged with confocal fluorescent microscopy. Volume of live, dead, and total cell volume was calculated (positive volume=positive voxel; 1 voxel=0.0367 μm3). Asterisks indicate P≤0.05 as determined by one-way ANOVA compared to DMSO. Mean and SDs derived from a minimum of four fields of view each from two biological replicates.

The nature of data set [7]: Murine pharmacokinetic analysis. The data set is classed as in vivo, C57BL/6 mice. As to conditions: mice, 50 mg/kg IP. On the procedure: FIG. 7A-B. D66 pharmacokinetic parameters. Values were calculated by compartmental modeling using Phoenix WinNonlin. Data fit a two-compartment model (r=0.9976) with bolus dosing. A) Decay curve. B) Parameter values.
Murine pharmacokinetic analyses and infections: Three female C57BL/6 mice were injected intraperitoneally (IP) with 50 mg/kg of D66 formulated in DMSO (50 μL). […] Three mice were initially dosed and observed for 24 hours to determine tolerability. […] Plasma D66 levels were measured using a liquid chromatography coupled to tandem mass spectrometry (LC/MS/MS) assay by the University of Colorado Cancer Center Drug Discovery and Development Shared Resource. The assay used monitored the transition of D66 (376 m/z->176 m/z) and was linear from 1-1000 ng/ml with an accuracy and precision of 90.3%+10.4% (% CV) based on quality control (QC) samples included with analyzed unknown samples.

A word on the MIC: it is the lowest concentration found to suppress growth. High values mean weaker potency, low ones greater potency. A word on the MIC50: it is the lowest concentration that inhibits either 50% of growth or 50% of the strains tested, depending on the study. Broadly, the half-life is the time in which the quantity being followed falls by half.

Values after ≈ are worked out from the molar mass of the structure shown. Values joined by “and” are separate entries in the source; they are usually repeats but may differ in a detail not shown here. Equal values may be shown once. Read-outs that look alike come from different tables or passages of the source. A value given as a limit tells only on which side of the number the result lay.

As for `O=C(Nc1cc(Cl)cc(Cl)c1)N1CCCN(Cc2ccccc2)CC1` [D66], in data set [1], the membrane fluidity result is “rapidly increases membrane fluidity”. The MIC in data set [2] was found to be 89 µM (≈ 33.7 µg/mL). The “cMIC95 in LB” value was 52 µM in data set [3] (E. coli K-12 ΔtolC, LB); >150 µM in data set [4] (LB); 142 µM in data set [5] (S. Typhimurium ΔacrAB, LB). Further, the “cMIC95 in MHB” value was 43 µM in data set [3] (E. coli K-12 ΔtolC, MHB); >150 µM in data set [4] (MHB); 116 µM in data set [5] (S. Typhimurium ΔacrAB, MHB). Further, the MIC50 in data set [3] (read-out: MIC50 in LB) was 47 µM and 18 µg/mL; in data set [3] (read-out: MIC50 in MHB) it was 36 ± 1 µM; in data set [4] (LB, read-out: MIC50 in LB), > 150 µM and > 57 µg/mL; in data set [4] (MHB, read-out: MIC50 in MHB) it was > 150 µM; in data set [5] (read-out: MIC50 in LB), 128 µM and 48 µg/mL; in data set [5] (read-out: MIC50 in MHB) it was 81 ± 6 µM. Moreover, in data set [6], the staphylococcal biofilm formation result was “inhibits staphylococcal biofilm formation”. The half-life in data set [7] (female, C57BL/6, mouse, plasma, two-compartment model, read-out: elimination (terminal) half-life (converted)) was 3 h. Further, the peak serum concentration in data set [7] came to 3.5 µM. Also, the “steady state volume of distribution (Vss)” value in data set [7] amounted to 43.3 L/kg. Also, the “elimination (terminal) half-life” value in data set [7] (two-compartment model, 50 mg/kg) worked out at 3.0 h.
